Assay results as given in the supplement of paper PMC10307832.

How the values were obtained:
Assay in all cases: relative viability (nuclei count vs DMSO), 5 days (fraction); higher = more cells survive
[1] = tested on: A-427
In short: (§1)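 Lung cancer cell lines, seeded in 1536-well plates, were treated the following day by pin tool with a single drug or with five library-drug doses (not always all listed) in √10 steps on top of a fixed anchor-drug dose. Cells were fixed and nuclei stained in one step after 5 days, and nuclei were counted. Relative viability is the nuclei count for treated wells divided by that for vehicle wells, reported as medians of duplicate plates.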

[2] = tested on: COR-L 105
In short: as §1

[3] = tested on: H3255
In short: as §1

[4] = tested on: HCC-44
In short: as §1

[5] = tested on: HCC-827
In short: as §1

[6] = tested on: LOU-NH91
In short: as §1

[7] = tested on: LXF-289
In short: as §1

[8] = tested on: NCI-H1792
In short: as §1

[9] = tested on: NCI-H1793
In short: as §1

[10] = tested on: NCI-H1915
In short: as §1

[11] = tested on: NCI-H1944
In short: as §1

[12] = tested on: NCI-H1975
In short: as §1

[13] = tested on: NCI-H1993
In short: as §1

[14] = tested on: NCI-H2023
In short: as §1

[15] = tested on: NCI-H2087
In short: as §1

[16] = tested on: NCI-H2170
In short: as §1

[17] = tested on: NCI-H358
In short: as §1

[18] = tested on: NCI-H520
In short: as §1

[19] = tested on: SK-MES-1
In short: as §1

[20] = tested on: SW 1573
In short: as §1

Nc1cccc2c1CN(C1CCC(=O)NC1=O)C2=O (centres undefined) [Lenalidomide] + CS(=O)(=O)CCNCc1ccc(-c2ccc3ncnc(Nc4ccc(OCc5cccc(F)c5)c(Cl)c4)c3c2)o1 [Lapatinib] (partner 2 µM)
relative viability ([1]; first compound 0.253 µM): 0.983 | relative viability ([1]; first compound 2.53 µM): 1.1 | relative viability ([1]; first compound 8 µM): 0.975 | relative viability ([2]; first compound 0.253 µM): 0.386 | relative viability ([2]; first compound 0.8 µM): 0.364 | relative viability ([2]; first compound 2.53 µM): 0.343 | relative viability ([2]; first compound 8 µM): 0.33 | relative viability ([3]; first compound 0.253 µM): 0.237 | relative viability ([3]; first compound 0.8 µM): 0.191 | relative viability ([3]; first compound 2.53 µM): 0.317 | relative viability ([3]; first compound 8 µM): 0.227 | relative viability ([4]; first compound 0.253 µM): 0.997 | relative viability ([4]; first compound 0.8 µM): 0.799 | relative viability ([4]; first compound 2.53 µM): 1.05 | relative viability ([4]; first compound 8 µM): 0.924 | relative viability ([5]; first compound 0.253 µM): 0.189 | relative viability ([5]; first compound 0.8 µM): 0.202 | relative viability ([5]; first compound 2.53 µM): 0.151 | relative viability ([5]; first compound 8 µM): 0.185 | relative viability ([6]; first compound 0.253 µM): 0.771 | relative viability ([6]; first compound 0.8 µM): 0.675 | relative viability ([6]; first compound 2.53 µM): 0.758 | relative viability ([6]; first compound 8 µM): 0.579 | relative viability ([7]; first compound 0.253 µM): 0.928 | relative viability ([7]; first compound 0.8 µM): 0.882 | relative viability ([7]; first compound 2.53 µM): 0.991 | relative viability ([7]; first compound 8 µM): 0.957 | relative viability ([8]; first compound 0.253 µM): 0.946 | relative viability ([8]; first compound 0.8 µM): 0.729 | relative viability ([8]; first compound 2.53 µM): 1.03 | relative viability ([8]; first compound 8 µM): 0.666 | relative viability ([9]; first compound 0.253 µM): 0.675 | relative viability ([9]; first compound 0.8 µM): 0.483 | relative viability ([9]; first compound 2.53 µM): 1.07 | relative viability ([9]; first compound 8 µM): 0.454 | relative viability ([10]; first compound 0.253 µM): 0.979 | relative viability ([10]; first compound 0.8 µM): 0.807 | relative viability ([10]; first compound 2.53 µM): 1.11 | relative viability ([10]; first compound 8 µM): 1.02 | relative viability ([11]; first compound 0.253 µM): 0.932 | relative viability ([11]; first compound 0.8 µM): 0.59 | relative viability ([11]; first compound 2.53 µM): 0.754 | relative viability ([11]; first compound 8 µM): 0.602 | relative viability ([12]; first compound 0.253 µM): 0.897 | relative viability ([12]; first compound 0.8 µM): 0.799 | relative viability ([12]; first compound 2.53 µM): 1.07 | relative viability ([12]; first compound 8 µM): 0.909 | relative viability ([13]; first compound 0.253 µM): 0.894 | relative viability ([13]; first compound 0.8 µM): 0.831 | relative viability ([13]; first compound 2.53 µM): 0.821 | relative viability ([13]; first compound 8 µM): 0.722 | relative viability ([14]; first compound 0.253 µM): 0.74 | relative viability ([14]; first compound 0.8 µM): 0.859 | relative viability ([14]; first compound 2.53 µM): 0.838 | relative viability ([14]; first compound 8 µM): 0.568 | relative viability ([15]; first compound 0.253 µM): 1.01 | relative viability ([15]; first compound 0.8 µM): 0.78 | relative viability ([15]; first compound 2.53 µM): 1.07 | relative viability ([15]; first compound 8 µM): 1.09 | relative viability ([16]; first compound 0.253 µM): 0.26 | relative viability ([16]; first compound 0.8 µM): 0.293 | relative viability ([16]; first compound 2.53 µM): 0.296 | relative viability ([16]; first compound 8 µM): 0.247 | relative viability ([17]; first compound 0.253 µM): 0.41 | relative viability ([17]; first compound 0.8 µM): 0.623 | relative viability ([17]; first compound 2.53 µM): 0.51 | relative viability ([17]; first compound 8 µM): 0.453 | relative viability ([18]; first compound 0.253 µM): 0.82 | relative viability ([18]; first compound 0.8 µM): 0.929 | relative viability ([18]; first compound 2.53 µM): 1.11 | relative viability ([18]; first compound 8 µM): 0.637 | relative viability ([19]; first compound 0.253 µM): 0.416 | relative viability ([19]; first compound 0.8 µM): 0.397 | relative viability ([19]; first compound 2.53 µM): 0.536 | relative viability ([19]; first compound 8 µM): 0.391 | relative viability ([20]; first compound 0.253 µM): 1.12 | relative viability ([20]; first compound 0.8 µM): 1.08 | relative viability ([20]; first compound 2.53 µM): 1.12 | relative viability ([20]; first compound 8 µM): 0.992
